The values that follow come from US20200216416A1, “QUINOLINE COMPOUNDS AS INHIBITORS OF TAM AND MET KINASES” (Array BioPharma Inc., priority 2019, published 2020).

For orientation: IC50 means the concentration at which inhibition is half-maximal.

The target of data set [1] is T1, MDR1 transfected LLC-PK1 cells (Homo sapiens, UniProt P08183).
T1 construct: expressed in transfected cells; host or cells: LLC-PK1
The data set can be described thus: MDR1 LLC-PK1 permeability assay. Format: in vitro ADME. As to conditions: efflux ratio = Papp(B-A)/Papp(A-B). In short, it runs like this:
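MDR1-transfected LLC-PK1 monolayers dosed at 1 μM test article (1% organic) in A→B and B→A directions, in triplicate, for 2 h at 37 °C; lucifer yellow monitored monolayer integrity. Compound measured by LC-MS/MS against labetalol internal standard; Papp averaged per replicate, efflux ratio = Papp(B−A)/Papp(A−B).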

In data set [2] the target is T2, GST-tagged recombinant human TYRO3 kinase domain (Homo sapiens, UniProt Q06418).
T2 construct: GST-tagged recombinant human TYRO3 kinase domain; purchased Carna PR7480A
T2 sequence (Q06418 518-790 limits assumed): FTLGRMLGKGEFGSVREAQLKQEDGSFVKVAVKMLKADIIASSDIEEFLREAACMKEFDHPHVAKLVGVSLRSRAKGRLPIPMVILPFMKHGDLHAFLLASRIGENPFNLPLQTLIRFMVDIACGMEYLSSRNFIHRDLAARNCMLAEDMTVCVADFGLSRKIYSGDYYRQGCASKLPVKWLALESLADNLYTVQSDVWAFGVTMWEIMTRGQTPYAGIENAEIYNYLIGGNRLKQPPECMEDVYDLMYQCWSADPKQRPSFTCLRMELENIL
Description: TYRO3 Enzyme Assay (LanthaScreen Eu Kinase Binding). As to conditions: averaged IC50; TYRO3 5 nM; 60-minute incubation at 22° C.; TR-FRET. The method, boiled down: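 Competitive tracer-displacement TR-FRET: 5 nM kinase, 20 nM Alexa-Fluor Tracer 236 and 2 nM Eu-anti-GST with threefold-diluted compound in 25 mM HEPES pH 7.4, 10 mM MgCl2, 0.01% Triton X-100, 2% DMSO, 60 min at 22° C. Ratiometric percent of control fitted to a 4-parameter logistic; IC50 at 50 POC.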
A general note: In TR-FRET formats the signal depends on donor and acceptor labels being close together.

Data set [3] addresses T3, human MET kinase del Ex14 (Homo sapiens, UniProt P08581, DEL963-1009).
T3 construct: GST-tagged recombinant human MET kinase domain; purchased Signal Chem
Description: c-Met Enzyme Assay, del Ex14 mutant. Format: binding. As to conditions: averaged IC50; del Ex14 5 nM; 60-minute incubation at 22° C.; read-out: Del14 IC50. As for the experimental part: The affinity of compound binding to wild type and mutant human MET kinases was measured using Invitrogen's LanthaScreen™ Eu Kinase Binding technology. Briefly, GST-tagged recombinant human MET kinase domain from Signal Chem (see Table 8 below for concentration in assay) was incubated with 50 nM Alexa-Fluor® Tracer 236 (Invitrogen Cat No. PR9078A) and 2 nM Europium-anti-GST (Invitrogen Cat. No. A15116) along with test compound in a buffer consisting of 25 mM HEPES, pH 7.4, 10 mM MgCl2, 0.01% Triton X-100, 1mM DTT, and 2% DMSO. Compounds were typically prepared in a three-fold serial dilution in DMSO and added to the assay to give the appropriate final concentration. After a 60-minute incubation at 22° C., the reaction was measured using a PerkinElmer EnVision multimode plate reader via TR-FRET dual wavelength detection, and the percent of control (POC) calculated using a ratiometric emission factor. […] The POC values were fit to a 4 parameter logistic curve and the IC50 value is point where the curve crosses 50 POC.

T3 sequence (P08581 with tags, fused parts or gaps DEL963-1009 limits assumed): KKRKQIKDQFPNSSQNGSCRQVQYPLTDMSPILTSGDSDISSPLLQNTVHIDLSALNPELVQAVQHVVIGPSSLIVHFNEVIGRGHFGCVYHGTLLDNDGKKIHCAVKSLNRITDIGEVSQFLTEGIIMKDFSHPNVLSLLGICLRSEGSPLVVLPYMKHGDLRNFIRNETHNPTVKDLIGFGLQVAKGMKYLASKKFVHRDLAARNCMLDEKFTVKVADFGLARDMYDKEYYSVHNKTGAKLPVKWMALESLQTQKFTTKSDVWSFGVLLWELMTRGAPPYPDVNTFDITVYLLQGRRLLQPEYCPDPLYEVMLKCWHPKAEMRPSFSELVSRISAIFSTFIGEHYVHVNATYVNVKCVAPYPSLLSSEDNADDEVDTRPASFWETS
T1 sequence (P08183 whole entry): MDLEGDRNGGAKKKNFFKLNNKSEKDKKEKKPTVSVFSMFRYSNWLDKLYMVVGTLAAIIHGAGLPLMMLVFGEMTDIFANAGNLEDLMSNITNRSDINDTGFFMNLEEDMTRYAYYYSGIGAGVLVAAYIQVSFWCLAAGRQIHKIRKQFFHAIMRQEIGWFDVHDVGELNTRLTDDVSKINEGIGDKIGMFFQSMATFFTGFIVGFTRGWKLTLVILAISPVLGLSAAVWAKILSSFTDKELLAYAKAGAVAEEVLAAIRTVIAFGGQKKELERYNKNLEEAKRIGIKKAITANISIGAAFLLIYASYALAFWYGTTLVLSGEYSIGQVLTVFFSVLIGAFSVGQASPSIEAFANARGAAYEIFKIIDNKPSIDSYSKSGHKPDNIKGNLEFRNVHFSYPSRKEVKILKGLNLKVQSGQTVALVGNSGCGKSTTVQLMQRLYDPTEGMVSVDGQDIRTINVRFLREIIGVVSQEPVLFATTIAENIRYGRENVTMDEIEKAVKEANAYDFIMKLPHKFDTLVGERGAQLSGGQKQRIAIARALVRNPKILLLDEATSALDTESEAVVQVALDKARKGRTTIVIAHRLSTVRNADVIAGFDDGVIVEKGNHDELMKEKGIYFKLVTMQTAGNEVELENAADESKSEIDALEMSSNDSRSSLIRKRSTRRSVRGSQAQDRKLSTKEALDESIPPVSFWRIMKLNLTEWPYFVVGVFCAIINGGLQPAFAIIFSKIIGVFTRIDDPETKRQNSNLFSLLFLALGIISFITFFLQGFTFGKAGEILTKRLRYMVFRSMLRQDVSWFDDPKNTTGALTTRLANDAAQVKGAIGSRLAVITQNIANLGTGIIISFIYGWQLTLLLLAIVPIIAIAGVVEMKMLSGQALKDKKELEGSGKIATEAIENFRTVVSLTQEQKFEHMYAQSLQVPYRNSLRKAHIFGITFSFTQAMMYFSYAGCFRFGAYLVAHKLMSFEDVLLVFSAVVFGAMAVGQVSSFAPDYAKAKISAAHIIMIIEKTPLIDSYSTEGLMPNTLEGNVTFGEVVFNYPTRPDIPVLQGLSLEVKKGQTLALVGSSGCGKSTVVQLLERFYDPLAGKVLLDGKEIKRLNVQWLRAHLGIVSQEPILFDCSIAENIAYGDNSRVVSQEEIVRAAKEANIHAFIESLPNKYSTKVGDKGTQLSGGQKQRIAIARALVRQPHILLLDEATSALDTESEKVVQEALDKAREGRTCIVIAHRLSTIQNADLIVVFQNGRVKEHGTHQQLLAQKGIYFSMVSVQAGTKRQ

As to `COc1cc2nccc(Oc3ccc(NC(=O)c4cn(CCC(C)C)cc(-c5ccc(F)c(F)c5)c4=O)nc3)c2cc1OC` [Example 35, 5-(3,4-difluorophenyl)-N-(5-((6,7-dimethoxyquinolin-4yl)oxy)pyridin-2-yl)-1-isopentyl-4-oxo-1,4-dihydropyridine-3-carboxamide], in data set [1], the “MDR1 Pe Ratio” value came to 3.5. The IC50 was 30 nM in data set [2] and 14 nM in data set [3].
With `COc1cc2nccc(Oc3ccc(NC(=O)c4c[nH]cc(-c5ccc(F)cc5)c4=O)nc3)c2cc1OC` [Example 26, N-(5-((6,7-dimethoxyquinolin-4yl)oxy)pyridin-2-yl)-5-(4-fluorophenyl)-4-oxo-1,4-dihydropyridine-3-carboxamide], the IC50 in data set [2] worked out at 15 nM; in data set [3], 5.2 nM.
For `COc1cc2nccc(Oc3ccc(NC(=O)c4cn(CC(C)C)cc(-c5ccc(F)cc5)c4=O)nc3)c2cc1OC` [Example 11, N-(5-((6,7-dimethoxyquinolin-4-yl)oxy)pyridin-2-yl)-5-(4-fluorophenyl)-1-isobutyl-4-oxo-1,4-dihydropyridine-3-carboxamide], the values for the IC50 in data set [2] and in data set [3] were 33 nM and 7.7 nM, respectively.
Regarding `COc1cc2nccc(Oc3ccc(NC(=O)c4cn(C(C)C)cc(-c5ccc(F)cc5OC)c4=O)nc3)c2cc1OC` [Example 32, N-(5-((6,7-dimethoxyquinolin-4yl)oxy)pyridin-2-yl)-5-(4-fluoro-2-methoxyphenyl)-1-isopropyl-4-oxo-1,4-dihydropyridine-3-carboxamide], the IC50 in data set [2] came out at 9 nM; in data set [3], 3.2 nM.
On the same counts, the results for `COCCn1cc(C(=O)Nc2ccc(Oc3ccnc4cc(OC)c(OC)cc34)cn2)c(=O)c(-c2ccc(F)cc2)c1` [Example 7, N-(5((6,7-dimethoxyquinolin-4-yl)oxy)pyridin-2-yl)-5-(4-fluorophenyl)-1-(2-methoxyethyl)-4-oxo-1,4-dihydropyridine-3-carboxamide] are 7 nM and 2.6 nM.
On the same counts, the results for `COc1cc2nccc(Oc3ccc(NC(=O)c4cn(C(C)C)cc(-c5ccc(Cl)cc5)c4=O)nc3)c2cc1OC` [Example 5, 5-(4-chlorophenyl)-N-(5-((6,7-dimethoxyquinolin-4-yl)oxy)pyridin-2-yl)-1-isopropyl-4-oxo-1,4-dihydropyridine-3-carboxamide] are 12 nM and 6.4 nM.
Consider `COc1cc2nccc(Oc3ccc(NC(=O)c4cn(C(C)C)cc(-c5ccc(F)c(Cl)c5)c4=O)nc3)c2cc1OC` [Example 21, 5-(3-chloro-4-fluorophenyl)-N-(5-((6,7-dimethoxyquinolin-4-yl)oxy)pyridin-2-yl)-1-isopropyl-4-oxo-1,4-dihydropyridine-3-carboxamide], for which the IC50 in data set [2] came out at 26 nM; in data set [3] it was 13.6 nM.
On the same counts, the results for `COc1cc2nccc(Oc3ccc(NC(=O)c4cn(C(C)C)c(C)c(-c5ccc(F)c(F)c5)c4=O)nc3)c2cc1OC` [Example 28, 5-(3,4-difluorophenyl)-N-(5-((6,7-dimethoxyquinolin-4yl)oxy)pyridin-2-yl)-1-isopropyl-6-methyl-4-oxo-1,4-dihydropyridine-3-carboxamide] are 7 nM and 1.9 nM.
Turning to `COc1cc2nccc(Oc3ccc(NC(=O)c4cn(C(C)C)cc(-c5ccc(F)cc5)c4=O)cn3)c2cc1OC` [Example 58, N-(6-((6,7-dimethoxyquinolin-4-yl)oxy)pyridin-3-yl)-5-(4-fluorophenyl)-1-isopropyl-4-oxo-1,4-dihydropyridine-3-carboxamide], the IC50 in data set [2] turned out to be 6 nM; in data set [3], 3.1 nM.
In the case of `CC(C)n1cc(C(=O)Nc2ccc(Oc3ccnc4cc(OC(F)(F)F)ccc34)cn2)c(=O)c(-c2ccc(F)cc2)c1` [Example 50, 5-(4-fluorophenyl)-1-isopropyl-4-oxo-N-(5-((7-(trifluoromethoxy)quinolin-4-yl)oxy)pyridin-2-yl)-1,4-dihydropyridine-3-carboxamide], the IC50 turned out to be 470 nM in data set [2] and 90.4 nM in data set [3].
For `COc1cc2nccc(Oc3ccc(NC(=O)c4cn(CC(=O)N5CCCC5)cc(-c5ccc(F)cc5F)c4=O)nc3)c2cc1OC` [Example 14], the IC50 in data set [2] came to 129 nM; in data set [3] it was 15.9 nM.
